We go through 18 molecules from patent US12404295B2, “(Hetero)aryl-methyl-thio-beta-D-galactopyranoside derivatives” (Idorsia Pharmaceuticals Ltd, priority 2019, dated 2025).

Read-outs that look alike come from different tables or passages of the source.

For one assay, the target named is human Gal-3 (hGal-3) (Homo sapiens (Human), UniProt P17931). Nature of the assay: competitive binding assay: biotinylated hGal-3 binding to microplate-adsorbed asialofetuin (ASF). In outline: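 Peroxidase activity developed with ABTS measures the biotinylated hGal-3 remaining on the asialofetuin-coated surface after competition with test compounds. Incubation ran 3 h at 4 °C, followed by 1 h with streptavidin-peroxidase at 80 ng/mL.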

The target of a further assay is human Gal-1 (hGal-1) (Homo sapiens (Human), UniProt P09382). Description: competitive binding assay: biotinylated hGal-1 binding to microplate-adsorbed asialofetuin (ASF). To be noted: Table 15; read-out: IC50 (Galectin-1 inhibition). Put shortly: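 Biotinylated human Gal-1 (300-1000 ng/mL) competes with serially diluted compound for binding to ASF-coated plates, 3 h at 4° C. Bound protein detected with streptavidin-peroxidase and ABTS substrate (spectrophotometric). IC50 given as mean of several measurements.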

The mark [1] stands for this setting: Gal-3 inhibition, binding of biotinylated hGal-3 to ASF, mean values, read-out: IC50.
Setting [2] is: Table 5, read-out: IC50 (Gal-3 inhibition).

Sequence of human Gal-1 (hGal-1) (P09382 whole entry): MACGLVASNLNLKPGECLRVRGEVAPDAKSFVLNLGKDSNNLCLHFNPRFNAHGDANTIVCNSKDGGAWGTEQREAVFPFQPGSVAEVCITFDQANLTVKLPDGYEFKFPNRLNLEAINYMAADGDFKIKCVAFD
Sequence of human Gal-3 (hGal-3) (P17931 whole entry): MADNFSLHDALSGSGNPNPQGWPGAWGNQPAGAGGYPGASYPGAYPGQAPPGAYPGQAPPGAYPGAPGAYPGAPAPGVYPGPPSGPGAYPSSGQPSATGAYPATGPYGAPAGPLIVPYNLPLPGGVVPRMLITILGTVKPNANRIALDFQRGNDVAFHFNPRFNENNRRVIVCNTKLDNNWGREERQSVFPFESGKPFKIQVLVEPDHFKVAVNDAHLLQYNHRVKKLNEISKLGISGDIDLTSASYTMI

For `CO[C@@H]1[C@@H](n2cc(-c3cc(F)c(F)c(F)c3)nn2)[C@@H](O)[C@@H](CO)O[C@H]1S[C@H](c1ncccc1C)C1(O)CCS(=O)(=O)CC1` [Example 2.66.126R.I., 4-Hydroxy-4-((R)-(((2S,3R,4S,5R,6R)-5-hydroxy-6-(hydroxymethyl)-3-methoxy-4-(4-(3,4,5-trifluorophenyl)-1H-1,2,3-triazol-1-yl)tetrahydro-2H-pyran-2-yl)thio)(3-methylpyridin-2-yl)methyl)tetrahydro-2H-thiopyran 1,1-dioxide], the IC50 worked out at 60 nM at human Gal-3 (hGal-3) (Table 9, 2-OMe-Gal inhibitors, read-out: IC50 (Gal-3 inhibition)) and 90 nM on human Gal-1 (hGal-1).

Take `CC(C)(O)[C@H](S[C@@H]1O[C@H](CO)[C@H](O)[C@H](n2cc(-c3cc(F)c(F)c(F)c3)nn2)[C@H]1O)c1cccc2ccccc12` [Example 2.31.115R., (2S,3R,4S,5R,6R)-2-(((R)-2-Hydroxy-2-methyl-1-(naphthalen-1-yl)propyl)thio)-6-(hydroxymethyl)-4-(4-(3,4,5-trifluorophenyl)-1H-1,2,3-triazol-1-yl)tetrahydro-2H-pyran-3,5-diol]: the IC50 was 170 nM at human Gal-3 (hGal-3) (setting [1]) and 580 nM at human Gal-1 (hGal-1).

In the case of `Cc1ccccc1C(S[C@@H]1O[C@H](CO)[C@H](O)[C@H](n2cc(-c3cc(F)c(F)c(F)c3)nn2)[C@H]1O)C1(O)CCOCC1` (stereo partly drawn) [Example 2.41.102.], the half-maximal inhibitory concentration (IC50) on human Gal-3 (hGal-3) (setting [2]) came out at 90 nM; on human Gal-1 (hGal-1), 1610 nM.

In the case of `CC(C)c1cccnc1C(S[C@@H]1O[C@H](CO)[C@H](O)[C@H](n2cc(-c3cc(F)c(F)c(F)c3)nn2)[C@H]1O)C1(O)CCC(F)(F)CC1` (stereo partly drawn) [Example 2.44.132., (2S,3R,4S,5R,6R)-2-(((4,4-Difluoro-1-hydroxycyclohexyl)(3-isopropylpyridin-2-yl)methyl)thio)-6-(hydroxymethyl)-4-(4-(3,4,5-trifluorophenyl)-1H-1,2,3-triazol-1-yl)tetrahydro-2H-pyran-3,5-diol], the IC50 at human Gal-3 (hGal-3) (setting [1]) was 100 nM; on human Gal-1 (hGal-1), 160 nM.

Consider `Cc1nc([C@@H](S[C@@H]2O[C@H](CO)[C@H](O)[C@H](n3cc(-c4cc(F)c(F)c(F)c4)nn3)[C@H]2O)C(C)(C)O)c(C)o1` [Example 2.31.122R., (2S,3R,4S,5R,6R)-2-(((R)-1-(2,5-Dimethyloxazol-4-yl)-2-hydroxy-2-methylpropyl)thio)-6-(hydroxymethyl)-4-(4-(3,4,5-trifluorophenyl)-1H-1,2,3-triazol-1-yl)tetrahydro-2H-pyran-3,5-diol], for which the IC50 at human Gal-3 (hGal-3) (setting [1]) came out at 370 nM; on human Gal-1 (hGal-1), 670 nM.

For `Cc1conc1[C@@H](S[C@@H]1O[C@H](CO)[C@H](O)[C@H](n2cc(-c3cc(F)c(F)c(F)c3)nn2)[C@H]1O)C1(O)CCS(=O)(=O)CC1` [Example 2.66.120R., 4-((R)-(((2S,3R,4S,5R,6R)-3,5-Dihydroxy-6-(hydroxymethyl)-4-(4-(3,4,5-trifluorophenyl)-1H-1,2,3-triazol-1-yl)tetrahydro-2H-pyran-2-yl)thio)(4-methylisoxazol-3-yl)methyl)-4-hydroxytetrahydro-2H-thiopyran 1,1-dioxide], the results for the IC50 at human Gal-3 (hGal-3) (setting [1]) and at human Gal-1 (hGal-1) were 30 nM and 70 nM, respectively.

With `Cc1c(F)cccc1[C@H](S[C@@H]1O[C@H](CO)[C@H](O)[C@H](n2cc(-c3cc(F)c(F)c(F)c3)nn2)[C@H]1O)C(C)(C)O` [Example 2.31.114S., (2S,3R,4S,5R,6R)-2-(((S)-1-(3-Fluoro-2-methylphenyl)-2-hydroxy-2-methylpropyl)thio)-6-(hydroxymethyl)-4-(4-(3,4,5-trifluorophenyl)-1H-1,2,3-triazol-1-yl)tetrahydro-2H-pyran-3,5-diol], the IC50 stood at 5400 nM on human Gal-3 (hGal-3) (setting [1]) and 40900 nM on human Gal-1 (hGal-1).

With `Cc1nc(C)c([C@H](S[C@@H]2O[C@H](CO)[C@H](O)[C@H](n3cc(-c4cc(F)c(F)c(F)c4)nn3)[C@H]2O)C2(O)CCC(F)(F)CC2)nc1C` [Example 2.44.119S., (2S,3R,4S,5R,6R)-2-(((S)-(4,4-Difluoro-1-hydroxycyclohexyl)(3,5,6-trimethylpyrazin-2-yl)methyl)thio)-6-(hydroxymethyl)-4-(4-(3,4,5-trifluorophenyl)-1H-1,2,3-triazol-1-yl)tetrahydro-2H-pyran-3,5-diol], the half-maximal inhibitory concentration (IC50) at human Gal-3 (hGal-3) (setting [2]) turned out to be 700 nM; at human Gal-1 (hGal-1) it was 7210 nM.

As to `Cc1ccccc1[C@@H](S[C@@H]1O[C@H](CO)[C@H](O)[C@H](n2cc(-c3cc(F)c(F)c(F)c3)nn2)[C@H]1O)C1(O)CCCCC1` [Example 2.39.102R., (2S,3R,4S,5R,6R)-2-(((R)-(1-Hydroxycyclohexyl)(o-tolyl)methyl)thio)-6-(hydroxymethyl)-4-(4-(3,4,5-trifluorophenyl)-1H-1,2,3-triazol-1-yl)tetrahydro-2H-pyran-3,5-diol], the concentration for half-maximal inhibition (IC50) turned out to be 90 nM at human Gal-3 (hGal-3) (setting [2]) and 1140 nM on human Gal-1 (hGal-1).

`CO[C@@H]1[C@@H](n2cc(-c3cc(F)c(F)c(F)c3)nn2)[C@@H](O)[C@@H](CO)O[C@H]1S[C@@H](c1nccc(C(F)(F)F)c1C)C1(O)CCC(F)(F)CC1` [Example 2.44.147S.I., (2R,3R,4S,5R,6S)-6-(((S)-(4,4-Difluoro-1-hydroxycyclohexyl)(3-methyl-4-(trifluoromethyl)pyridin-2-yl)methyl)thio)-2-(hydroxymethyl)-5-methoxy-4-(4-(3,4,5-trifluorophenyl)-1H-1,2,3-triazol-1-yl)tetrahydro-2H-pyran-3-ol]: the half-maximal inhibitory concentration (IC50) is 5300 nM at human Gal-3 (hGal-3) (Table 11, read-out: IC50 (Gal-3 inhibition)) and 31800 nM at human Gal-1 (hGal-1).

Regarding `OC[C@H]1O[C@@H](SC(c2ccccc2C(F)(F)F)C2(O)CCC(F)(F)CC2)[C@H](O)[C@@H](n2cc(-c3cc(F)c(F)c(F)c3)nn2)[C@H]1O` (stereo partly drawn) [Example 2.44.112., (2S,3R,4S,5R,6R)-2-(((4,4-Difluoro-1-hydroxycyclohexyl)(2-(trifluoromethyl)phenyl)methyl)thio)-6-(hydroxymethyl)-4-(4-(3,4,5-trifluorophenyl)-1H-1,2,3-triazol-1-yl)tetrahydro-2H-pyran-3,5-diol], the IC50 is 300 nM on human Gal-3 (hGal-3) (setting [2]) and 950 nM on human Gal-1 (hGal-1).

Turning to `OC[C@H]1O[C@@H](SC(c2ncccc2C(F)(F)F)C2(O)CCCC2)[C@H](O)[C@@H](n2cc(-c3cc(F)c(F)c(F)c3)nn2)[C@H]1O` (stereo partly drawn) [Example 2.38.125.], the half-inhibitory concentration (IC50) is 130 nM at human Gal-3 (hGal-3) (setting [1]) and 760 nM at human Gal-1 (hGal-1).

For `OC[C@H]1O[C@@H](S[C@H](c2ncccc2C(F)(F)F)C2(O)CCOCC2)[C@H](O)[C@@H](n2cc(-c3cc(F)c(F)c(F)c3)nn2)[C@H]1O` [Example 2.41.125R., (2R,3R,4S,5R,6S)-2-(Hydroxymethyl)-6-(((R)-(4-hydroxytetrahydro-2H-pyran-4-yl)(3-(trifluoromethyl)pyridin-2-yl)methyl)thio)-4-(4-(3,4,5-trifluorophenyl)-1H-1,2,3-triazol-1-yl)tetrahydro-2H-pyran-3,5-diol], the IC50 on human Gal-3 (hGal-3) (setting [2]) stood at 30 nM; at human Gal-1 (hGal-1), 130 nM.

In the case of `CCCCCc1ccccc1C(S[C@@H]1O[C@H](CO)[C@H](O)[C@H](n2cc(-c3cc(F)c(F)c(F)c3)nn2)[C@H]1O)C(C)(C)O` (stereo partly drawn) [Example 2.31.109., (2S,3R,4S,5R,6R)-2-((2-Hydroxy-2-methyl-1-(2-pentylphenyl)propyl)thio)-6-(hydroxymethyl)-4-(4-(3,4,5-trifluorophenyl)-1H-1,2,3-triazol-1-yl)tetrahydro-2H-pyran-3,5-diol], the IC50 turned out to be 540 nM on human Gal-3 (hGal-3) (setting [1]) and 3230 nM on human Gal-1 (hGal-1).

As for `OC[C@H]1O[C@@H](S[C@@H](c2ncccc2C(F)(F)F)C2(O)CCCCC2)[C@H](O)[C@@H](n2cc(-c3cc(F)c(F)c(F)c3)nn2)[C@H]1O` [Example 2.39.125S., (2S,3R,4S,5R,6R)-2-(((S)-(1-Hydroxycyclohexyl)(3-(trifluoromethyl)pyridin-2-yl)methyl)thio)-6-(hydroxymethyl)-4-(4-(3,4,5-trifluorophenyl)-1H-1,2,3-triazol-1-yl)tetrahydro-2H-pyran-3,5-diol], the 50% inhibitory concentration (IC50) was 3000 nM at human Gal-3 (hGal-3) (setting [2]) and 21800 nM at human Gal-1 (hGal-1).

Consider `CNS(=O)(=O)N1CCC(O)(C(S[C@@H]2O[C@H](CO)[C@H](O)[C@H](n3cc(-c4cc(F)c(F)c(F)c4)nn3)[C@H]2O)c2ccccc2C(F)(F)F)CC1` (stereo partly drawn) [Example 2.46.112., 4-((((2S,3R,4S,5R,6R)-3,5-Dihydroxy-6-(hydroxymethyl)-4-(4-(3,4,5-trifluorophenyl)-1H-1,2,3-triazol-1-yl)tetrahydro-2H-pyran-2-yl)thio)(2-(trifluoromethyl)phenyl)methyl)-4-hydroxy-N-methylpiperidine-1-sulfonamide], for which the IC50 at human Gal-3 (hGal-3) (setting [1]) is 50 nM; on human Gal-1 (hGal-1), 270 nM.

For the molecule `CCO[C@@H]1[C@@H](n2cc(-c3cc(F)c(F)c(F)c3)nn2)[C@@H](O)[C@@H](CO)O[C@H]1S[C@H](c1ncccc1C)C1(O)CCC(F)(F)CC1` [Example 2.44.126R.II., (2R,3R,4S,5R,6S)-6-(((R)-(4,4-Difluoro-1-hydroxycyclohexyl)(3-methylpyridin-2-yl)methyl)thio)-5-ethoxy-2-(hydroxymethyl)-4-(4-(3,4,5-trifluorophenyl)-1H-1,2,3-triazol-1-yl)tetrahydro-2H-pyran-3-ol], the 50% inhibitory concentration (IC50) turned out to be 110 nM at human Gal-3 (hGal-3) (setting [1]) and 870 nM at human Gal-1 (hGal-1).

On to `Cc1cccnc1[C@@H](S[C@@H]1O[C@H](CO)[C@H](O)[C@H](n2cc(-c3cc(F)c(F)c(F)c3)nn2)[C@H]1O)C1(O)CCOCC1` [Example 2.41.126R., (2R,3R,4S,5R,6S)-2-(Hydroxymethyl)-6-(((R)-(4-hydroxytetrahydro-2H-pyran-4-yl)(3-methylpyridin-2-yl)methyl)thio)-4-(4-(3,4,5-trifluorophenyl)-1H-1,2,3-triazol-1-yl)tetrahydro-2H-pyran-3,5-diol], for which the IC50 turned out to be 30 nM at human Gal-3 (hGal-3) (setting [1]) and 700 nM on human Gal-1 (hGal-1).

Broadly, the IC50 is the concentration that gives 50% inhibition.
